Measured values taken from ChEMBL document CHEMBL1687752, “Impact of antifungal prophylaxis on colonization and azole susceptibility of Candida species” (2009).
Values after ≈ are worked out from the molar mass of the structure shown.

How the values were obtained:
Assay type in all cases: functional
Nakaseomyces glabratus [1] = test: Antifungal activity against Candida glabrata isolated from neutropenic subject 1491 with AML or MDS pharynx receiving antifungal drug after 23 days prophylaxis by broth microdilution method; settings: 552 h
Nakaseomyces glabratus [2] = test: Antifungal activity against Candida glabrata isolated from HSCT recipients with acute or chronic GVHD receiving fluconazole assessed as maximum MIC by broth microdilution method
Pichia kudriavzevii [3] = test: Antifungal activity against 8 days cultured Candida krusei isolated from neutropenic subject with AML or MDS pharynx after 12 days of prophylaxis by broth microdilution method
Pichia kudriavzevii [4] = test: Antifungal activity against Candida krusei isolated from neutropenic subjects with AML or MDS prior to initiation of posaconazole therapy assessed as maximum MIC by broth microdilution method
Nakaseomyces glabratus [5] = test: Antifungal activity against 176 days cultured Candida glabrata isolated from HSCT recipient with acute or chronic GVHD mouth receiving antifungal therapy for 168 days after 113 days of prophylaxis by broth microdilution method
Pichia kudriavzevii [6] = test: Antifungal activity against Candida krusei isolated from neutropenic subjects with AML or MDS prior to initiation of fluconazole therapy assessed as maximum MIC by broth microdilution method
Pichia kudriavzevii [7] = test: Antifungal activity against Candida krusei isolated from HSCT recipients with acute or chronic GVHD receiving fluconazole by broth microdilution method
Nakaseomyces glabratus [8] = test: Antifungal activity against 43 days cultured Candida glabrata isolated from HSCT recipient with acute or chronic GVHD mouth receiving antifungal therapy for 168 days after 113 days of prophylaxis by broth microdilution method
Nakaseomyces glabratus [9] = test: Antifungal activity against 1 day cultured Candida glabrata isolated from neutropenic subject with AML or MDS stool receiving antifungal therapy for 25 days after 3 days of prophylaxis by broth microdilution method
Candida albicans [10] = test: Antifungal activity against Candida albicans isolated from HSCT recipient 462 with acute or chronic GVHD mouth after 112 days prophylaxis by broth microdilution method
Candida albicans [11] = test: Antifungal activity against Candida albicans isolated from neutropenic subjects with AML or MDS prior to initiation of fluconazole therapy assessed as maximum MIC by broth microdilution method
Candida albicans [12] = test: Antifungal activity against Candida albicans isolated from HSCT recipients with acute or chronic GVHD prior to initiation of posaconazole therapy assessed as maximum MIC by broth microdilution method
Candida albicans [13] = test: Antifungal activity against Candida albicans isolated from HSCT recipient 928 with acute or chronic GVHD mouth after 112 days prophylaxis by broth microdilution method
Nakaseomyces glabratus [14] = test: Antifungal activity against Candida glabrata isolated from HSCT recipients with acute or chronic GVHD receiving fluconazole by broth microdilution method
Nakaseomyces glabratus [15] = test: Antifungal activity against Candida glabrata isolated from HSCT recipient 186 with acute or chronic GVHD mouth after 112 days prophylaxis by broth microdilution method
Candida albicans [16] = test: Antifungal activity against 1 day cultured Candida albicans isolated from HSCT recipient with acute or chronic GVHD mouth after 2 days of prophylaxis by broth microdilution method
Nakaseomyces glabratus [17] = test: Antifungal activity against Candida glabrata isolated from HSCT recipients with acute or chronic GVHD prior to initiation of fluconazole therapy by broth microdilution method
Nakaseomyces glabratus [18] = test: Antifungal activity against 1 day cultured Candida glabrata isolated from HSCT recipient with acute or chronic GVHD mouth after 17 days of prophylaxis by broth microdilution method
Candida albicans [19] = test: Antifungal activity against Candida albicans isolated from neutropenic subjects with AML or MDS prior to initiation of fluconazole therapy by broth microdilution method
Nakaseomyces glabratus [20] = test: Antifungal activity against 14 days cultured Candida glabrata isolated from HSCT recipient with acute or chronic GVHD mouth after 17 days of prophylaxis by broth microdilution method
Nakaseomyces glabratus [21] = test: Antifungal activity against 111 days cultured Candida glabrata isolated from HSCT recipient with acute or chronic GVHD mouth receiving antifungal therapy for 143 days after 116 days of prophylaxis by broth microdilution method
Nakaseomyces glabratus [22] = test: Antifungal activity against 15 days cultured Candida glabrata isolated from HSCT recipient with acute or chronic GVHD mouth receiving antifungal therapy for 168 days after 113 days of prophylaxis by broth microdilution method
Nakaseomyces glabratus [23] = test: Antifungal activity against 60 days cultured Candida glabrata isolated from HSCT recipient with acute or chronic GVHD mouth receiving antifungal therapy for 75 days after 33 days of prophylaxis by broth microdilution method
Nakaseomyces glabratus [24] = test: Antifungal activity against Candida glabrata isolated from HSCT recipient 807 with acute or chronic GVHD mouth after 114 days prophylaxis by broth microdilution method
Candida albicans [25] = test: Antifungal activity against Candida albicans isolated from HSCT recipients with acute or chronic GVHD prior to initiation of fluconazole therapy by broth microdilution method
Candida albicans [26] = test: Antifungal activity against Candida albicans isolated from neutropenic subjects with AML or MDS prior to initiation of posaconazole therapy by broth microdilution method
Candida albicans [27] = test: Antifungal activity against Candida albicans isolated from HSCT recipients with acute or chronic GVHD prior to initiation of fluconazole therapy assessed as maximum MIC by broth microdilution method
Nakaseomyces glabratus [28] = test: Antifungal activity against 7 days cultured Candida glabrata isolated from neutropenic subject with AML or MDS stool receiving antifungal therapy for 37 days after 9 days of prophylaxis by broth microdilution method
Nakaseomyces glabratus [29] = test: Antifungal activity against Candida glabrata isolated from HSCT recipient 474 with acute or chronic GVHD mouth receiving antifungal drug after 124 days prophylaxis by broth microdilution method
Pichia kudriavzevii [30] = test: Antifungal activity against 13 days cultured Candida krusei isolated from invasive fungal infected subject blood after 12 days of prophylaxis by broth microdilution method
Saccharomyces cerevisiae = test: Antifungal activity against Saccharomyces cerevisiae isolated from HSCT recipient 513 with acute or chronic GVHD mouth receiving antifungal drug after 112 days prophylaxis by broth microdilution method
Nakaseomyces glabratus [31] = test: Antifungal activity against Candida glabrata isolated from HSCT recipient 002 with acute or chronic GVHD mouth after 116 days prophylaxis by broth microdilution method
Nakaseomyces glabratus [32] = test: Antifungal activity against Candida glabrata isolated from neutropenic subject 1331 with AML or MDS pharynx after 21 days prophylaxis by broth microdilution method; settings: 504 h
Nakaseomyces glabratus [33] = test: Antifungal activity against Candida glabrata isolated from HSCT recipient 186 with acute or chronic GVHD mouth receiving antifungal drug after 112 days prophylaxis by broth microdilution method
Pichia kudriavzevii [34] = test: Antifungal activity against 8 days cultured Candida krusei isolated from neutropenic subject with AML or MDS stool after 12 days of prophylaxis by broth microdilution method
Nakaseomyces glabratus [35] = test: Antifungal activity against Candida glabrata isolated from HSCT recipient 002 with acute or chronic GVHD mouth receiving antifungal drug after 116 days prophylaxis by broth microdilution method
Nakaseomyces glabratus [36] = test: Antifungal activity against 59 days cultured Candida glabrata isolated from HSCT recipient with acute or chronic GVHD mouth receiving antifungal therapy for 75 days after 33 days of prophylaxis by broth microdilution method
Nakaseomyces glabratus [37] = test: Antifungal activity against Candida glabrata isolated from neutropenic subject 1497 with AML or MDS pharynx receiving antifungal drug after 61 days prophylaxis by broth microdilution method
Candida albicans [38] = test: Antifungal activity against Candida albicans isolated from HSCT recipient 462 with acute or chronic GVHD mouth receiving antifungal drug after 112 days prophylaxis by broth microdilution method

CC[C@@H]([C@H](C)O)n1ncn(-c2ccc(N3CCN(c4ccc(OC[C@@H]5CO[C@@](Cn6cncn6)(c6ccc(F)cc6F)C5)cc4)CC3)cc2)c1=O [POSACONAZOLE]
MIC (Nakaseomyces glabratus [1]): 8 µg/mL (≈ 11.4 µM)
MIC (Nakaseomyces glabratus [2]): 16 µg/mL
MIC (Pichia kudriavzevii [3]): 0.125 µg/mL (≈ 0.178 µM)
MIC (Pichia kudriavzevii [4]): 0.25 µg/mL
MIC (Nakaseomyces glabratus [5]): 4 µg/mL (≈ 5.71 µM)
MIC (Pichia kudriavzevii [6]): 0.25 µg/mL
MIC50 (Pichia kudriavzevii [7]): 0.25 µg/mL (≈ 0.357 µM)
MIC90 (Pichia kudriavzevii [7]): 0.5 µg/mL (≈ 0.713 µM)
MIC (Nakaseomyces glabratus [8]): 2 µg/mL (≈ 2.85 µM)
MIC (Nakaseomyces glabratus [9]): 4 µg/mL (≈ 5.71 µM)
MIC (Candida albicans [10]): < 0.015 µg/mL
MIC (Candida albicans [11]): 0.06 µg/mL
MIC (Candida albicans [12]): 16 µg/mL
MIC (Candida albicans [13]): < 0.015 µg/mL
MIC50 (Nakaseomyces glabratus [14]): 2 µg/mL (≈ 2.85 µM)
MIC90 (Nakaseomyces glabratus [14]): 8 µg/mL (≈ 11.4 µM)
MIC (Nakaseomyces glabratus [15]): 0.25 µg/mL (≈ 0.357 µM)
MIC (Candida albicans [16]): < 0.03 µg/mL
MIC50 (Nakaseomyces glabratus [17]): 1 µg/mL (≈ 1.43 µM)
MIC90 (Nakaseomyces glabratus [17]): 8 µg/mL (≈ 11.4 µM)
MIC (Nakaseomyces glabratus [18]): > 8 µg/mL
MIC50 (Candida albicans [19]): 0.015 µg/mL (≈ 0.0214 µM)
MIC90 (Candida albicans [19]): 0.015 µg/mL (≈ 0.0214 µM)
MIC (Nakaseomyces glabratus [20]): 8 µg/mL (≈ 11.4 µM)
MIC (Nakaseomyces glabratus [21]): 4 µg/mL (≈ 5.71 µM)
MIC (Nakaseomyces glabratus [22]): 2 µg/mL (≈ 2.85 µM)
MIC (Nakaseomyces glabratus [23]): 4 µg/mL (≈ 5.71 µM)
MIC (Nakaseomyces glabratus [24]): 0.25 µg/mL (≈ 0.357 µM)
MIC50 (Candida albicans [25]): 0.016 µg/mL (≈ 0.0228 µM)
MIC90 (Candida albicans [25]): 0.03 µg/mL (≈ 0.0428 µM)
MIC50 (Candida albicans [26]): 0.015 µg/mL (≈ 0.0214 µM)
MIC90 (Candida albicans [26]): 0.015 µg/mL (≈ 0.0214 µM)
MIC (Candida albicans [27]): 0.06 µg/mL
MIC (Nakaseomyces glabratus [28]): 1 µg/mL (≈ 1.43 µM)
MIC (Nakaseomyces glabratus [29]): 4 µg/mL (≈ 5.71 µM)
MIC (Pichia kudriavzevii [30]): 0.25 µg/mL (≈ 0.357 µM)
MIC (Saccharomyces cerevisiae): 4 µg/mL (≈ 5.71 µM)
MIC (Nakaseomyces glabratus [31]): 0.5 µg/mL (≈ 0.713 µM)
MIC (Nakaseomyces glabratus [32]): 2 µg/mL (≈ 2.85 µM)
MIC (Nakaseomyces glabratus [33]): 2 µg/mL (≈ 2.85 µM)
MIC (Pichia kudriavzevii [34]): 0.125 µg/mL (≈ 0.178 µM)
MIC (Nakaseomyces glabratus [35]): 4 µg/mL (≈ 5.71 µM)
MIC (Nakaseomyces glabratus [36]): 1 µg/mL (≈ 1.43 µM)
MIC (Nakaseomyces glabratus [37]): 4 µg/mL (≈ 5.71 µM)
MIC (Candida albicans [38]): 0.06 µg/mL (≈ 0.0856 µM)
